Measurements as given in PubChem BioAssay (NCI).
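These data come from cells grown in 96-well plates and exposed to compound for 48 hours at five concentrations. GI50: concentration for 50% inhibition of growth. Definition used: TGI = concentration required for complete inhibition of growth.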

How the values were obtained:
Test in all cases: DTP human tumour cell line panel, 48 h
HCT-116 colon = system: HCT-116 colon
NCI-H522 lung = system: NCI-H522 lung
NCI-H23 lung = system: NCI-H23 lung
RXF 393 renal = system: RXF 393 renal
SK-MEL-28 melanoma = system: SK-MEL-28 melanoma
SN12C renal = system: SN12C renal
COLO 205 colon = system: COLO 205 colon
MCF7 breast = system: MCF7 breast
HCT-15 colon = system: HCT-15 colon
OVCAR-3 ovarian = system: OVCAR-3 ovarian

Structure (SMILES)	GI50 (HCT-116 colon)	TGI (HCT-116 colon)	GI50 (NCI-H522 lung)	TGI (NCI-H522 lung)	GI50 (NCI-H23 lung)	TGI (NCI-H23 lung)	GI50 (RXF 393 renal)	TGI (RXF 393 renal)	GI50 (SK-MEL-28 melanoma)	TGI (SK-MEL-28 melanoma)	GI50 (SN12C renal)	TGI (SN12C renal)	GI50 (COLO 205 colon)	TGI (COLO 205 colon)	GI50 (MCF7 breast)	TGI (MCF7 breast)	GI50 (HCT-15 colon)	TGI (HCT-15 colon)	GI50 (OVCAR-3 ovarian)	TGI (OVCAR-3 ovarian)
C=C(CN1CCc2[nH]c3ccc(F)cc3c2C1)c1ccc(C(=O)Nc2ccccc2N)cc1	0.367 µM	5.04 µM	0.316 µM	1.35 µM	2.22 µM	12.6 µM	0.269 µM	0.949 µM	3.54 µM	26.2 µM	3.82 µM	14 µM	2.37 µM	6.66 µM	2.45 µM	69.2 µM	3.17 µM	12.6 µM	2.08 µM	6.84 µM
CCSCC1CC(O)(c2ccccc2)C(c2ccccc2)C(c2ccc(F)cc2)O1 (stereo not drawn)	1.47 µM	3.22 µM	1.57 µM	4.84 µM	2.01 µM	4.87 µM	1.87 µM	3.57 µM	1.74 µM	3.4 µM	1.89 µM	5.25 µM	1.81 µM	3.84 µM	2.25 µM	6.81 µM	1.76 µM	3.99 µM	2.19 µM	5.26 µM
Cc1noc(NC(=O)Nc2ccccc2F)c1C#N	–	> 43 µM	–	> 34.7 µM	–	> 100 µM	–	> 100 µM	–	> 100 µM	–	> 48 µM	–	> 100 µM	–	> 35.6 µM	–	> 100 µM	–	> 100 µM
CCCCCCCCCCCC[C@@H](O)[C@H]1CC[C@H]([C@H](O)CC[C@H](O)[C@@H]2CC[C@@H](CCCCCCCC3=C[C@H](C)OC3=O)O2)O1	1.7 µM	> 50 µM	–	> 50 µM	0.164 µM	> 50 µM	–	> 50 µM	3.37 µM	> 50 µM	> 50 µM	> 50 µM	8.16 µM	> 50 µM	1.85 µM	> 50 µM	5.07 µM	> 50 µM	2.78 µM	> 50 µM
